Columns and labels:
[1] = target: T1, recombinant guanylate cyclase reporter cell line (Rattus norvegicus, UniProt P20595); experiment: sGC-activating activity in the CHO reporter cell in vitro; type: cell-based
T1 construct: expressed in transfected cells; host or cells: CHO reporter cell line
T1 sequence (P20595 1-619): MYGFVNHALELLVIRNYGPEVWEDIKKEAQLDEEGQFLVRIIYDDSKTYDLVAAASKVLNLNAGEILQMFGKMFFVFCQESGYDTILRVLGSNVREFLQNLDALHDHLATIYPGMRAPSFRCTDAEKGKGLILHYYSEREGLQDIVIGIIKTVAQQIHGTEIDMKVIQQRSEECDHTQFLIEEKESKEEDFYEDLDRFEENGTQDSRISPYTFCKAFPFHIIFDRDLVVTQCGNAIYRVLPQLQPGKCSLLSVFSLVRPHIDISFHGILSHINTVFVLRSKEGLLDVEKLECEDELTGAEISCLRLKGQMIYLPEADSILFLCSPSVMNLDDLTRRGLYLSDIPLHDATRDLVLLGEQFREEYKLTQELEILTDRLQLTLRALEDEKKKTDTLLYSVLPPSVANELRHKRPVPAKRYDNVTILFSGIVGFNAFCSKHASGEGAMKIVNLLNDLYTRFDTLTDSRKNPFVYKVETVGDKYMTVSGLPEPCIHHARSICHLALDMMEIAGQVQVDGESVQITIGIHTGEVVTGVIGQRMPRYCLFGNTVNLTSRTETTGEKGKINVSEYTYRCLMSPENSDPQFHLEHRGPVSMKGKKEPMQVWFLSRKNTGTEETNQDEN
T1 sequence (P19686 1-690 partner): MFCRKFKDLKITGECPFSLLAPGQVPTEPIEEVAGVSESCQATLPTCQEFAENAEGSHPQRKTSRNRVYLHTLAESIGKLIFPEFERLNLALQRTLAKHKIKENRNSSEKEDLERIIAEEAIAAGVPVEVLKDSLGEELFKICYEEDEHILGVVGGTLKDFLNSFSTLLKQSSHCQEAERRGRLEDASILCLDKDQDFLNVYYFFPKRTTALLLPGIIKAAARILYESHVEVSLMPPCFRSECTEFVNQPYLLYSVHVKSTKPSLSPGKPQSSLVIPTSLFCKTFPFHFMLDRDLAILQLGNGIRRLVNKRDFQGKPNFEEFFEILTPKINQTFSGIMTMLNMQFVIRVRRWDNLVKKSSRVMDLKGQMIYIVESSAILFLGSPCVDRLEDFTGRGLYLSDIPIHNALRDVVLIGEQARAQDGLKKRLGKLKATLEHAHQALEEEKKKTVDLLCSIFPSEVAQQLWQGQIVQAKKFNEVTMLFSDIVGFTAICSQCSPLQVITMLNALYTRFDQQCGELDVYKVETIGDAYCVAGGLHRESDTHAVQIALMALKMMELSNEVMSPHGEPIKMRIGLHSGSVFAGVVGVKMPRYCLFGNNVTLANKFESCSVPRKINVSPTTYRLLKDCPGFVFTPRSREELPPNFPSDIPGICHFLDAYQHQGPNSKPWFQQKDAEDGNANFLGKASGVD
Description: The cellular action of the compounds according to the invention is determined at a recombinant guanylate cyclase reporter cell line, as described in F. Wunder et al., Anal. Biochem. 339, 104-112 (2005).

[2] = target: T2, Heme-containing sGC (recombinant soluble guanylate cyclase) (Rattus norvegicus, UniProt P20595); experiment: Stimulation of recombinant soluble guanylate cyclase (sGC) in vitro, heme-containing enzyme; type: biochemical
T2 construct: made in house; host or cells: baculovirus/Sf9 insect cells
T2 sequence (P20595 1-619): T1 sequence (P20595 1-619)
T2 sequence (P19686 1-690 partner): T1 sequence (P19686 1-690 partner)
Source text: Hoenicka, E. M. Becker, H. Apeler, T. Sirichoke, H. Schroeder, R. Gerzer and J.-P. Stasch, “Purified soluble guanylyl cyclase expressed in a baculovirus/Sf9 system: Stimulation by YC-1, nitric oxide, and carbon oxide”, J. Mol. Med. 77 (1999), 14-23. The heme-free guanylate cyclase is obtained by adding Tween 20 to the sample buffer (0.5% in the final concentration).
(§1) The activation of sGC by a test substance is reported as n-fold stimulation of the basal activity.

saphenous artery rings = experiment: Vasorelaxant effect in vitro (phenylephrine-contracted artery rings); design: species or system Rabbits; settings: Oryctolagus cuniculus, concentration reducing phenylephrine-induced contraction by 50%
[3] = target: T3, Heme-free sGC (recombinant soluble guanylate cyclase) (Rattus norvegicus, UniProt P20595); experiment: Stimulation of recombinant soluble guanylate cyclase (sGC) in vitro, heme-free enzyme; type: biochemical
T3 construct: made in house; host or cells: baculovirus/Sf9 insect cells
T3 sequence (P20595 1-619): T1 sequence (P20595 1-619)
T3 sequence (P19686 1-690 partner): T1 sequence (P19686 1-690 partner)
Description: Investigations on the stimulation of recombinant soluble guanylate cyclase (sGC) by the compounds according to the invention with and without sodium nitroprusside, and with and without the heme-dependent sGC inhibitor 1H-1,2,4-oxadiazolo-(4,3a)-quinoxalin-1-one (ODQ) are carried out by the method described in detail in the following reference: M. Hoenicka, E. M. Becker, H. Apeler, T. Sirichoke, H. Schroeder, R. Gerzer and J.-P. Stasch, “Purified soluble guanylyl cyclase expressed in a baculovirus/Sf9 system: Stimulation by YC-1, nitric oxide, and carbon oxide”, J. Mol. Med. 77 (1999), 14-23. The heme-free guanylate cyclase is obtained by adding Tween 20 to the sample buffer (0.5% in the final concentration).
as §1

- MEC (minimum effective concentration), sGC-activating activity in the CHO reporter cell [1]: 10 nM
- Stimulation (n-fold) of heme-containing sGC, basal ([2]; 0.1 μM Example 103): 1.2 n-fold
- Stimulation (n-fold) of heme-containing sGC, +0.1 μM DEA/NO ([2]; 0.1 μM Example 103): 6.9 n-fold
- Stimulation (n-fold) of heme-containing sGC, +10 μM ODQ ([2]; 0.1 μM Example 103): 5.8 n-fold
- Stimulation (n-fold) of heme-containing sGC, basal ([2]; 1 μM Example 103): 1.4 n-fold
- Stimulation (n-fold) of heme-containing sGC, +0.1 μM DEA/NO ([2]; 1 μM Example 103): 7.8 n-fold
- Stimulation (n-fold) of heme-containing sGC, +10 μM ODQ ([2]; 1 μM Example 103): 8.5 n-fold
- Stimulation (n-fold) of heme-containing sGC, basal ([2]; 10 μM Example 103): 6.2 n-fold
- Stimulation (n-fold) of heme-containing sGC, +0.1 μM DEA/NO ([2]; 10 μM Example 103): 13.5 n-fold
- Stimulation (n-fold) of heme-containing sGC, +10 μM ODQ ([2]; 10 μM Example 103): 36.8 n-fold
- Stimulation (n-fold) of heme-containing sGC, basal ([2]; 100 μM Example 103): 22.3 n-fold
- Stimulation (n-fold) of heme-containing sGC, +0.1 μM DEA/NO ([2]; 100 μM Example 103): 35.6 n-fold
- Stimulation (n-fold) of heme-containing sGC, +10 μM ODQ ([2]; 100 μM Example 103): 91.8 n-fold
- Effect of combination with the NO donor DEA/NO on sGC stimulation ([2]; combination with DEA/NO): no synergistic effect
- IC50 (saphenous artery rings): 120 nM
- Stimulation (n-fold) of heme-free sGC, basal ([3]; 0.1 μM Example 103): 1.1 n-fold
- Stimulation (n-fold) of heme-free sGC, basal ([3]; 1 μM Example 103): 2.4 n-fold
- Stimulation (n-fold) of heme-free sGC, basal ([3]; 10 μM Example 103): 13.9 n-fold
- Stimulation (n-fold) of heme-free sGC, basal ([3]; 100 μM Example 103): 56.1 n-fold
Structure (SMILES): O=C(O)CCc1cccc(NC(=O)C(c2ccc(CN3N=C(c4ccccc4)OCC3=O)cc2)C2CCCC2)c1 (single isomer, unassigned) [Example 103, 3-{3-[(Cyclopentyl{4-[(5-oxo-2-phenyl-5,6-dihydro-4H-1,3,4-oxadiazin-4-yl)methyl]phenyl}acetyl)amino]phenyl}propanoic acid]

— patent US8987256B2, “Oxo-heterocyclic substituted carboxylic acid derivatives and the use thereof” (Bayer Intellectual Property GmbH, priority 2008, dated 2015)
